# Legend:
# Pseudomonas aeruginosa [1] = assay: In vitro antibacterial activity against Pseudomonas aeruginosa ATCC 10145 bacteria; assay type: functional
# Staphylococcus aureus = assay: In vitro antibacterial activity against Staphylococcus aureus FDA 209P bacteria; assay type: functional
# Escherichia coli = assay: In vitro antibacterial activity against Escherichia coli NIHJ JC-2 bacteria; assay type: functional
# Pseudomonas aeruginosa [2] = assay: In vitro antibacterial activity against Pseudomonas aeruginosa NCTC-10490 bacteria; assay type: functional
# Mus musculus [3] = organism: Mus musculus; assay: Challenged dose in mouse infected with Pseudomonas aeruginosa E-2; assay type: functional
# Mus musculus [4] = assay: In vivo therapeutic efficacy against systemic infections in mice using Pseudomonas aeruginosa E-2 as a test organism; assay type: functional
# Pseudomonas aeruginosa [5] = assay: In vivo therapeutic efficacy against systemic infections in mice using Pseudomonas aeruginosa E-2 as a test organism
# Mus musculus [6] = assay: In vivo therapeutic efficacy against systemic infections in mice using Pseudomonas aeruginosa E-2 as a test organism.; assay type: functional
SMILES,MIC (Pseudomonas aeruginosa [1]),MIC (Staphylococcus aureus),MIC (Escherichia coli),MIC (Pseudomonas aeruginosa [2]),MIC (Pseudomonas aeruginosa [5]),Challenge dose (Mus musculus [3]),ED50 (Mus musculus [4]),ED50 (Mus musculus [6]),MIC (Mus musculus [6])
CC(C)(O/N=C(\C(=O)N[C@@H]1C(=O)N2C(C(=O)[O-])=C(CSc3cc[n+](Cc4cc(O)c(O)cn4)cc3)CS[C@H]12)c1csc(N)n1)C(=O)O,0.39 µg/mL,6.25 µg/mL,0.78 µg/mL,0.05 µg/mL,–,–,–,–,–
Nc1nc(/C(=N/OCC(=O)O)C(=O)N[C@@H]2C(=O)N3C(C(=O)[O-])=C(CSc4cc[n+](CC(=O)c5ccc(O)c(O)c5)cc4)CS[C@H]23)cs1,0.1 µg/mL,3.13 µg/mL,0.05 µg/mL,≤ 0.025 µg/mL,0.1 µg/mL,1000000 cells mouse-1,> 20 mg/kg,–,–
CC(C)(O/N=C(\C(=O)N[C@@H]1C(=O)N2C(C(=O)[O-])=C(C[n+]3ccccc3)CS[C@H]12)c1csc(N)n1)C(=O)O [CEFTAZIDIME],1.56 µg/mL,3.13 µg/mL,0.39 µg/mL,0.78 µg/mL,–,1000000 cells mouse-1,–,34.4 mg/kg,1.56 µg/mL

# The remaining compounds from weak to strong by MIC (Pseudomonas aeruginosa [1]), led by results:
MIC (Pseudomonas aeruginosa [1]),MIC (Staphylococcus aureus),MIC (Escherichia coli),MIC (Pseudomonas aeruginosa [2]),MIC (Pseudomonas aeruginosa [5]),SMILES,Challenge dose (Mus musculus [3]),ED50 (Mus musculus [4]),ED50 (Mus musculus [6]),MIC (Mus musculus [6])
0.39 µg/mL,0.78 µg/mL,0.1 µg/mL,0.05 µg/mL,–,CO/N=C(\C(=O)N[C@@H]1C(=O)N2C(C(=O)[O-])=C(CSc3cc[n+](CC(=O)c4ccc(O)c(O)c4)cc3)CS[C@H]12)c1csc(N)n1,–,–,–,–
0.05 µg/mL,3.13 µg/mL,0.1 µg/mL,≤ 0.025 µg/mL,–,CC(C)(O/N=C(\C(=O)N[C@@H]1C(=O)N2C(C(=O)[O-])=C(CSc3cc[n+](CC(=O)c4ccc(O)c(O)c4)cc3)CS[C@H]12)c1csc(N)n1)C(=O)O,–,–,–,–
